# Columns and labels:
# [1] = system: K. pneumoniae (ATCC 10031); experiment: Antibacterial assay (MIC50); type: cell-based, Klebsiella pneumoniae; conditions: against K. pneumoniae; compared with 31.25 µg mL^−1 of Oliveira et al.
# Description: The human-pathogenic Gram-negative bacteria K. pneumoniae (ATCC 10031) strain was obtained from the Laboratory of Plant Toxins (LABTOX) of the Federal University of Ceará (UFC).
# [2] = system: K. pneumoniae cells; experiment: Cell viability by MTT assay, planktonic cells; type: cell-based, Klebsiella pneumoniae; conditions: peptide at MIC50 31.25 μg mL^−1 (Table 1; method says 1 mg mL^−1), MTT 3 h, 37 °C, absorbance 495 nm
# Experimental: The cell viability assay was performed as described by Lima et al., with some adjustments. After the antibacterial assay was completed as described by Oliveira et al., the wells containing the treated cells with Mo-CBP3-PepI at 1 mg mL^−1 and control cells (50 µL) were incubated for 3 h in the dark at 37 °C with 50 µL of 3-(4,5-dimethylthiazol-2-yl)-2,5-diphenyltetrazolium bromide (2 mg mL^−1, MTT). After incubation, 100 µL of 100% DMSO was added to the wells, and the plate was slowly shaken to dissolve the formazan crystals. The absorbance was measured using a microplate reader (Epoch, BioTek) with a wavelength of 495 nm. The controls used for this assay were 5% of dimethyl sulfoxide (DMSO) prepared in 0.15 M NaCl (saline) solution and ciprofloxacin (1000 µg mL^−1) prepared in 5% ethanol in sterile saline solution.
# [3] = system: K. pneumoniae cells; experiment: ROS overproduction (DCFH-DA fluorescence microscopy); type: cell-based, Klebsiella pneumoniae; conditions: peptide 31.25 µg mL^−1, 24 h, 1 mM DCFH-DA 30 min
# Experimental: This assay was conducted in the same way as above but with a few differences. The preparation of cell suspension and the antimicrobial assay was performed in the same way described above. After the three rounds of centrifugation and washes, the cells were incubated with 1 mM 2,7-dichlorofluorescein diacetate (DCFH-DA) for 30 min, in the dark, at 37 °C. After the washes, the cells were also observed under a fluorescence microscope (Olympus System BX60; excitation wavelength, 488 nm; emission wavelength, 525 nm).
# [4] = system: K. pneumoniae cells; conditions: 31.25 µg mL^−1, 24 h
# Experimental: After this, samples were washed twice with 50 mM sodium acetate pH 5.2, with centrifugations at 12,000× g for 15 min at 4 °C. At the end of the washes, the samples were resuspended in 300 µL in the same buffer and frozen for 24 h. Then, the frozen samples were sonicated for 30 min to break the cell wall and membrane, the samples were centrifuged again, and the supernatant was collected.
# After that, the Bradford assay was performed to determine the protein concentration in the samples. This step was followed by adding a 10 mM DTT solution under incubation for 1 h at 37 °C to reduce the proteins. Then iodoacetamide was added to a final concentration of 15 mM and incubated for 30 min in a dark room to alkylate the reduced proteins. The proteins reduced and alkylated were digested using trypsin gold (Promega, Madison, WI, USA) to a final concentration of 1:20 (w/w) as described by manufacturers. The trypsin digestion was performed for 16 h at 37 °C. Finally, the samples were dried in a speed vacuum (Eppendorf, Hamburg, Germany) for 3 h and analyzed by ESI-QUAD-TOF mass spectrometer.
# Tandem mass spectra were extracted into PKL files for both samples, and the proteins were searched using MASCOT MS/MS ions search from MATRIX SCIENCE (https://www.matrixscience.com/cgi/search_form.pl?FORMVER=2&SEARCH=MIS (accessed on 15 September 2022)) against UP625_E_coli_K12 (AA), UP808_K_pneumoniae and SwissProt databases (the taxonomy was set in bacteria). The terms for the search were: fixed modifications to Carbamidomethyl (C); variable modifications to Oxidation […]; the Peptide tolerance was set to 1.2 DA (with 1% FDR); the MS/MS tolerance was set to 0.6 DA; the peptide charge was set to 2+, 3+, and 4+; and finally, the instrument was set to ESI-QUAD-TOF. The proteins identified in both samples were searched for in UNIPROT and separated into 3 sets (unique from control, unique from the cells treated with Mo-CBP3-PepI, and Mo-CBP3-PepI x control shared proteins).
# The proteins with a fold-change value ≥ 1.5 (p < 0.05, Tukey’s test) that were up-accumulated (increased the abundance), and proteins with a fold-change value ≤ 0.5 (p < 0.05, Tukey’s test) that were down-accumulated (decreased the abundance) were taken into consideration for comparisons. For each protein, its corresponding FASTA file was downloaded. Then, the blast2go program (https://www.blast2go.com/ (accessed on 30 September 2022)) was used to categorize the proteins detected by Gene Ontology (GO) annotation according to Molecular function, […], and subcellular location.
# [5] = system: K. pneumoniae (ATCC 10031); set-up: method as in PMID 30389515; conditions: against K. pneumoniae; cited from earlier work
# [6] = set-up: method as in PMID 30389515; conditions: design feature; cited from earlier work
# Description: Synthetic antimicrobial peptides emerged as a solution to solve the problems presented by natural antimicrobial peptides. […] To answer the first question, it is necessary to revert to the design process of Mo-CBP3-PepI.
sequence,measurement,setting,value
CPAIQRCC [Mo-CBP3-PepI],"MIC50, experiments repeated here",[1],same results
same,Cell Viability (%),[2],47.54 ± 0.008%
same,ROS overproduction,[3],slight accumulation of ROS
same,Fold Change Mo-CBP3-PepI vs. DMSO: Methylenetetrahydrofolate--tRNA-(uracil-5-)-methyltransferase TrmFO,[4]; A4WRQ2,0.948
same,Fold Change Mo-CBP3-PepI vs. DMSO: 50S ribosomal protein L22,[4]; A5IYY1,0.187
same,Fold Change Mo-CBP3-PepI vs. DMSO: Phosphoenolpyruvate carboxykinase (ATP),[4]; A8AQV7,0.990
same,Fold Change Mo-CBP3-PepI vs. DMSO: Xylose isomerase,[4]; B5ZQV6,1.062
same,Fold Change Mo-CBP3-PepI vs. DMSO: Pantothenate synthetase,[4]; B8I2Z3,1.142
same,Fold Change Mo-CBP3-PepI vs. DMSO: Chaperonin GroEL,[4]; P0A6F5,1.444
same,Fold Change Mo-CBP3-PepI vs. DMSO: Pantothenate kinase,[4]; P0A6I3,0.548
same,Fold Change Mo-CBP3-PepI vs. DMSO: HTH-type transcriptional regulator ArgP,[4]; P0A8S1,2.364
same,Fold Change Mo-CBP3-PepI vs. DMSO: 50S ribosomal protein L7/L12,[4]; P0A466,1.979
same,Fold Change Mo-CBP3-PepI vs. DMSO: Zinc resistance-associated protein,[4]; P0AAA9,1.682
same,Fold Change Mo-CBP3-PepI vs. DMSO: Cysteine synthase A,[4]; P0ABK5,0.596
same,Fold Change Mo-CBP3-PepI vs. DMSO: Fimbriae Z protein,[4]; P0AEL8,0.690
same,Fold Change Mo-CBP3-PepI vs. DMSO: Ferrichrome outer membrane transporter/phage receptor,[4]; P06971,1.063
same,Fold Change Mo-CBP3-PepI vs. DMSO: Iron (3+)-hydroxamate import system permease protein FhuB,[4]; P06972,0.948
same,Fold Change Mo-CBP3-PepI vs. DMSO: 2-succinyl-5-enolpyruvyl-6-hydroxy-3-cyclohexene-1-carboxylate synthase,[4]; P17109,3.486
same,Fold Change Mo-CBP3-PepI vs. DMSO: Sensor protein PhoQ,[4]; P23837,0.823
same,Fold Change Mo-CBP3-PepI vs. DMSO: Lipopolysaccharide core biosynthesis protein RfaZ,[4]; P27241,2.038
same,Fold Change Mo-CBP3-PepI vs. DMSO: Inner membrane protein YhjD,[4]; P37642,0.362
same,Fold Change Mo-CBP3-PepI vs. DMSO: Gamma-glutamylputrescine oxidoreductase,[4]; P37906,0.985
same,Fold Change Mo-CBP3-PepI vs. DMSO: Endonuclease 8,[4]; P50465,0.287
same,Fold Change Mo-CBP3-PepI vs. DMSO: Sensor histidine kinase GlrK,[4]; P52101,0.752
same,Fold Change Mo-CBP3-PepI vs. DMSO: 2.3-bisphosphoglycerate-dependent phosphoglycerate mutase,[4]; P62707,0.519
same,Fold Change Mo-CBP3-PepI vs. DMSO: Low affinity potassium transport system protein kup,[4]; P63183,1.704
same,Fold Change Mo-CBP3-PepI vs. DMSO: Peptide methionine sulfoxide reductase MsrB,[4]; P75129,14.104
same,Fold Change Mo-CBP3-PepI vs. DMSO: Probable cytosol aminopeptidase,[4]; P75206,2.097
same,Fold Change Mo-CBP3-PepI vs. DMSO: tRNA uridine 5-carboxymethylaminomethyl modification enzyme MnmG,[4]; P75221,0.487
same,Fold Change Mo-CBP3-PepI vs. DMSO: Phosphate acyltransferase,[4]; P75232,3.096
same,Fold Change Mo-CBP3-PepI vs. DMSO: Putative ABC transporter ATP-binding protein MPN_334,[4]; P75444,1.336
same,Fold Change Mo-CBP3-PepI vs. DMSO: Putative acetyltransferase MPN_114,[4]; P75448,1.703
same,Fold Change Mo-CBP3-PepI vs. DMSO: Cytadherence high molecular weight protein 2,[4]; P75471,1.682
same,Fold Change Mo-CBP3-PepI vs. DMSO: Oligopeptide transport ATP-binding protein OppD,[4]; P75552,0.948
same,Fold Change Mo-CBP3-PepI vs. DMSO: Phenylacetate-coenzyme A ligase,[4]; P76085,1.666
same,Fold Change Mo-CBP3-PepI vs. DMSO: Sensor histidine kinase HprS,[4]; P76339,0.213
same,Fold Change Mo-CBP3-PepI vs. DMSO: UDP-glucose 6-dehydrogenase,[4]; P76373,0.902
same,Fold Change Mo-CBP3-PepI vs. DMSO: Cation efflux system protein CusC,[4]; P77211,0.920
same,Fold Change Mo-CBP3-PepI vs. DMSO: Glycerate 3-kinase,[4]; P77364,0.745
same,Fold Change Mo-CBP3-PepI vs. DMSO: Glutathione S-transferase YfcF,[4]; P77544,0.273
same,Fold Change Mo-CBP3-PepI vs. DMSO: HTH-type transcriptional regulator SutR,[4]; P77626,2.566
same,Fold Change Mo-CBP3-PepI vs. DMSO: Lon protease,[4]; P78025,0.342
same,Fold Change Mo-CBP3-PepI vs. DMSO: Pyruvate kinase,[4]; P78031,3.139
same,Fold Change Mo-CBP3-PepI vs. DMSO: Undecaprenyl-diphosphatase,[4]; Q2KX31,1.340
same,Fold Change Mo-CBP3-PepI vs. DMSO: Periplasmic trehalase,[4]; Q4UZ12,0.937
same,Fold Change Mo-CBP3-PepI vs. DMSO: GMP synthase (glutamine-hydrolyzing),[4]; Q6APU2,4.596
same,Fold Change Mo-CBP3-PepI vs. DMSO: Elongation factor G,[4]; Q7NAV3,0.234
same,Fold Change Mo-CBP3-PepI vs. DMSO: Diaminopimelate decarboxylase,[4]; Q8K9C4,3.546
same,Fold Change Mo-CBP3-PepI vs. DMSO: Bifunctional protein FolD,[4]; Q88WM8,0.726
same,Fold Change Mo-CBP3-PepI vs. DMSO: Mgp-operon protein 3,[4]; Q50341,0.654
same,MIC50,[5],31.25 mg/L
same,hydrophobic ratio,[6],62%
same,net charge,[6],+1

# — PMC9774128, “New Insights into the Mechanism of Antibacterial Action of Synthetic Peptide Mo-CBP3-PepI against Klebsiella pneumoniae” (Antibiotics, 2022)
